Reference: patent US4495104A, “Quinone carboxylic acids and ester derivatives” (Takeda Chemical Industries, Ltd., priority 1980, dated 1985)

Assays:
SRS-A production = experiment: Inhibition of SRS-A production and release in sensitized guinea-pig lung fragments (egg albumin antigen); format: cell-based, quinea-pig; details: lung fragments sensitized with egg albumin, compound dissolved in ethanol or dimethyl sulfoxide, read-out: Inhibitory effect on SRS-A production (%); for inhibition at 10 µM: concentration 10 μM
Description: Further, we investigated the effect of the present compound (I) on the production and release of the slow reacting substance of anaphylaxis (hereinafter, SRS-A) which has been mentioned as a main factor in asthma. Thus, in accordance with the method of Orange and Moore (J. Immunol., 116, 392-397, 1976), the present compound (I) was added to a quinea-pig lung fragments sensitized with egg albumin as the antigen, and the amount of SRS-A produced and released as a consequence was assayed by the method of Brocklehurst (J. Physiol., 151, 416-435, 1960).
^(1) The compound was added as dissolved in ethanol or dimethyl
^(2) The inhibitory effect on SRSA production was expressed as the %
inhibition of production and release of SRSA.

succinate oxidase = experiment: Mitochondrial electron-transport activity determined as succinate oxidase activity in ubiquinone-depleted enzyme preparations; format: biochemical; details: level of addition 10 n moles; ubiquinone-depleted enzyme preparation; control 19.34 ± 1.42
Description: ^(1) Ubiquinonedepleted enzyme preparations were prepared in
accordance with Lester and Fleischer (Biochem. Biophys. Acta., 47,358-377
1961). The electrontransport activity was determined based on succinate

Succinate oxidase activity [oxygen consumption per mg enzyme protein during 1 minute (n atoms oxygen)] (succinate oxidase) [n atoms oxygen] | SMILES | inhibition at 10 µM (SRS-A production) [%] | inhibition at 1 µM (SRS-A production; concentration 1 μM) [%]
112.05 | COC1=C(OC)C(=O)C(CCCCCCCCCCCCCCCCCC(=O)O)=C(C)C1=O [R:H, n:17, 6-(17-carboxyheptadecyl)-2,3-dimethoxy-5-methyl-1,4-benzoquinone] | 82.8 ± 4.4 | –
– | COC1=C(OC)C(=O)C(CCCCCCCCCCCCCCCCCCCCCC(=O)O)=C(C)C1=O [R:H, n:21, 6-(21-carboxyheneicosyl)-2,3-dimethoxy-5-methyl-1,4-benzoquinone] | 80.5 ± 0.5 | –
146.10 | COC(=O)CCCCCCCCCCCCC1=C(C)C(=O)C(OC)=C(OC)C1=O [n:12 R:CH3, 2,3-dimethoxy-6-(12-methoxycarbonyldodecyl)-5-methyl-1,4-benzoquinone] | – | –
96.05 | COC1=C(OC)C(=O)C(CCCCCCCCCCCCC(=O)O)=C(C)C1=O [R:H, n:12, 6-(12-carboxydodecyl)-2,3-dimethoxy-5-methyl-1,4-benzoquinone] | 87.2 ± 5.5 | 60 ± 3.3
